{"source": "paper PMC7075836", "about": "(European Journal of Nuclear Medicine and Molecular Imaging, 2020)", "key": {"α5β1": {"molecular_target": "T1, α5β1 (Homo sapiens, UniProt P05556+P08648)", "T1 construct": "incubating a small molecule RGD-mimetic-tritiated radioligand with soluble integrin protein", "T1 sequence (P08648 42-995 limits assumed)": "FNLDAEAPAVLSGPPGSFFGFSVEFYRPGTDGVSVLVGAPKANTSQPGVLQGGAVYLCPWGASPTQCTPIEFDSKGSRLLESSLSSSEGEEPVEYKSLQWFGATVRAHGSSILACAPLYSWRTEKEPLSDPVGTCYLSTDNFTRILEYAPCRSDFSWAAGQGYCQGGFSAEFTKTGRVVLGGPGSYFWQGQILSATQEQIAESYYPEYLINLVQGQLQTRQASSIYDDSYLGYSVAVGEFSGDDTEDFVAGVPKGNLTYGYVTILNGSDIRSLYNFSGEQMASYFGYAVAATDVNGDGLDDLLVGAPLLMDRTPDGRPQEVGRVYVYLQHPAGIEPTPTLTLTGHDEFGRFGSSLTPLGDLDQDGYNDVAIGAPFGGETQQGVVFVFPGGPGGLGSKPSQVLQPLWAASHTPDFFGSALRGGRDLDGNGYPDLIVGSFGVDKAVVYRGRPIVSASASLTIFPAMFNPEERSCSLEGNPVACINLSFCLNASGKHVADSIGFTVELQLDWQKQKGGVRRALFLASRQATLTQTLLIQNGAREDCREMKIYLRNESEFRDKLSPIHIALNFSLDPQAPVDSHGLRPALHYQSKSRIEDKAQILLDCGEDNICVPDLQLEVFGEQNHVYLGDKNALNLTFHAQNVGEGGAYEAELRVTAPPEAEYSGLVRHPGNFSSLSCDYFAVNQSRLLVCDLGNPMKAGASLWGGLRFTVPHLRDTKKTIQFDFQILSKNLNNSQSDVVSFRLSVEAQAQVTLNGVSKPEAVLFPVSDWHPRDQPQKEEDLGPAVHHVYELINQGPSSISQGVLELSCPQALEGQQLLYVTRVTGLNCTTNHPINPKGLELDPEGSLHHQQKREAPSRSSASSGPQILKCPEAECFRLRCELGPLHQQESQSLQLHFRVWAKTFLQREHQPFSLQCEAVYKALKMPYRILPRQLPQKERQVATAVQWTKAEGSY", "T1 sequence (P05556 21-728 limits assumed)": "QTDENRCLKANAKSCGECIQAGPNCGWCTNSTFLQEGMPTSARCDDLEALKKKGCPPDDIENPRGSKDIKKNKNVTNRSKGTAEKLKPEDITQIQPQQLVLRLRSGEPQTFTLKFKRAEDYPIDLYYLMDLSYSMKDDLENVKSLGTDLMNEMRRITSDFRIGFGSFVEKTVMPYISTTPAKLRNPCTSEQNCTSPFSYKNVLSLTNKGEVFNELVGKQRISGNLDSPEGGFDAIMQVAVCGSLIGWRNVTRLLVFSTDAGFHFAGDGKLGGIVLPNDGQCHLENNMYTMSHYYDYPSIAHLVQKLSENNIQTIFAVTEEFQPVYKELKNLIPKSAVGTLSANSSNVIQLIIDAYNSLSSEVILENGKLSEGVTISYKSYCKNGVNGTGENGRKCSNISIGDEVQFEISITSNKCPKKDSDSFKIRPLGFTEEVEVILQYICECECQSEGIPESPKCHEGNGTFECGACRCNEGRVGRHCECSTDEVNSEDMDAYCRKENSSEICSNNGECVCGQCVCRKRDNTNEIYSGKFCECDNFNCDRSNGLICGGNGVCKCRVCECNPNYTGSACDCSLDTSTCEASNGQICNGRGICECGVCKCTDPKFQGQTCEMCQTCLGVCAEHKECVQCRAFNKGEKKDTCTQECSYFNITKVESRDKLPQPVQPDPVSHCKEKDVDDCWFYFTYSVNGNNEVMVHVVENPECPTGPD", "assay": "biochemical", "settings": "read-out: inhibition of binding"}, "α8β1": {"molecular_target": "T2, α8β1 (Homo sapiens, UniProt P05556+P53708)", "T2 construct": "incubating a small molecule RGD-mimetic-tritiated radioligand with soluble integrin protein", "T2 sequence (P53708 39-1012 limits assumed)": "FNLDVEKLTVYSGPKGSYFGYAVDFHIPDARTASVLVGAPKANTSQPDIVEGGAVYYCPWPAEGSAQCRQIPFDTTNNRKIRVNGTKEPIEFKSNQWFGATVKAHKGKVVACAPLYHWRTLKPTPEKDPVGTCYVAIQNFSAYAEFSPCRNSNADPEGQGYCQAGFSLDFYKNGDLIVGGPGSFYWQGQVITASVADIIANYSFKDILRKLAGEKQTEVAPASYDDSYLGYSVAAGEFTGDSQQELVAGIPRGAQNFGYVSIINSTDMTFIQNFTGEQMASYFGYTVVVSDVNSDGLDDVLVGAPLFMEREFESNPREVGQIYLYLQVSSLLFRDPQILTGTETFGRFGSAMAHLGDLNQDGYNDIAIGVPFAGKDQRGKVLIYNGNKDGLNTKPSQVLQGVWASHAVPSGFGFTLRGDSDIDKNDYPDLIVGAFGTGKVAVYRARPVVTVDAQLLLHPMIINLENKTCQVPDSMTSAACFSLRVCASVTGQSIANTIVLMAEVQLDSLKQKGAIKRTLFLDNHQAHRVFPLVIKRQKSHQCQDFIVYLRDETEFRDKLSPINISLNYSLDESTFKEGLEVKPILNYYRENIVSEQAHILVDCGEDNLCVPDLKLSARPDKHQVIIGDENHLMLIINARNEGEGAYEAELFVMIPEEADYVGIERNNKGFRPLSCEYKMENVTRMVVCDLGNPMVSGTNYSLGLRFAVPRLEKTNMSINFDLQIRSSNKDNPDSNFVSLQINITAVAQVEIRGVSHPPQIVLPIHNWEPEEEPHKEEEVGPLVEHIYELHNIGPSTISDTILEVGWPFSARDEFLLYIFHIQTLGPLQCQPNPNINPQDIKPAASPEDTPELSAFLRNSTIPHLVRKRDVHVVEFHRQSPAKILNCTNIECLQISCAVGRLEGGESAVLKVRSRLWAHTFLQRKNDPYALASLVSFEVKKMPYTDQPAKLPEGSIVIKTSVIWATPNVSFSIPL", "T2 sequence (P05556 21-728 limits assumed)": "as the sequence (P05556 21-728 limits assumed) above", "assay": "biochemical", "settings": "read-out: inhibition of binding"}}, "data": [{"smiles": "CC(C)C[C@H](NC(=O)[C@H](CC(=O)O)NC(=O)CNC(=O)[C@H](CCCNC(=N)N)NC(=O)[C@H](CC(C)C)NC(=O)[C@H](CC(N)=O)NC(=O)[C@@H]1CCCN1C(=O)[C@@H](NC(=O)[C@H](C)NC(=O)[C@@H](N)CC(N)=O)C(C)C)C(=O)N[C@@H](CCC(N)=O)C(=O)N[C@H](C(=O)N[C@@H](CC(C)C)C(=O)N[C@@H](C)C(=O)N[C@@H](CCC(N)=O)C(=O)N[C@@H](CCCCN)C(=O)N[C@H](C(=O)N[C@@H](C)C(=O)N[C@@H](CCCNC(=N)N)C(=O)N[C@H](C(N)=O)[C@@H](C)O)C(C)C)C(C)C", "note": "[A20FMDV2]", "values": [{"measurement": "inhibition at 1 µM", "setting": "α5β1", "result": "< 50", "unit": "%"}, {"measurement": "inhibition at 1 µM", "setting": "α8β1", "result": "< 50", "unit": "%"}]}]}
